According to patent US20220296541A1, “N-PALMITOYL-ETHANOLAMIDE FOR USE IN THE PREVENTION OF COLORECTAL CARCINOMA” (priority 2021, published 2022):

Tests used:
HCT116 cells [1] = assay: BrdU proliferation ELISA, HCT116 cells; format: cell-based, human; conditions: 1-30 μM, 24 hours of exposure (FIG. 2A)
Experimental: (§1) For the in vitro experiments, immortalized human colon cancer (HCT116) and human colorectal adenocarcinoma cell lines (Caco-2) and immortalized healthy human colon epithelial cells (HCEC) were cultured in DMEM growth medium (Sigma Aldrich) supplemented with 10% serum bovine fetal (FBS, Sigma Aldrich) and kept at 37° C. in an incubator with a 5% CO2 atmosphere.
(§2) To assess viability, the cells are stained with Trypan blue while cell proliferation, in the presence or absence of ultra-micronized PEA (1-30 μM), was determined using the BrdU proliferation ELISA kit (Roche, Milan, Italy).

[2] = tested on: cyclic-dependent kinase 1 (CDK1); assay: Gene expression of CDK1 by Real-Time PCR in HCT116 cells; format: cell-based, human; conditions: 30 μM for 24 h (FIG. 3C)
Experimental: as §1
(§3) The expression of the CDK1 and CYCLIN B1 genes was evaluated by virtue of the quantitative Real-Time PCR method using specific primers.

Caco-2 cells = assay: BrdU proliferation ELISA, Caco-2 cells; format: cell-based, human; conditions: 30 μM, 24 h (FIG. 2B)
Experimental: as §1, §2

cyclin B1 = assay: Gene expression of cyclin B1 by Real-Time PCR in HCT116 cells; format: cell-based, human; conditions: 30 μM for 24 h (FIG. 3B)
Experimental: as §1, §3

HCT116 cells [3] = assay: Cell cycle analysis by flow cytometry (BrdU/7-AAD) of HCT116 cells; format: cell-based, human; conditions: 30 μM for 24 h (FIG. 3A)
Experimental: as §1
The cell cycle analysis of HCT116 cells was performed following the protocol reported in the BD Pharmingen™ BrdU Flow Kit (BD Biosciences, USA). For the study, 1.5×10^5 cells was sown on 6-well plates and kept overnight in serum-free medium in the presence or absence of ultra-micronized PEA (30μM) for 24 h. The cells were detected with the BriCyte flow cytometer (Mindray, Italy) according to the BrdU (bromodeoxyuridine) and 7-AAD (7-aminoactinomycin D) content thereof. The data obtained were analyzed with FlowJo v10 software (tree Star, USA) to understand the distribution of HCT116 in the different cell cycle phases.

[4] = tested on: healthy human colon epithelial cells HCEC; assay: BrdU proliferation ELISA, healthy colon epithelial cells HCEC; format: cell-based; conditions: 24 h (FIG. 2C)
Experimental: as §1, §2

[5] = tested on: AOM-induced ACF, polyps and tumors; assay: AOM mouse model of colon cancer; format: in vivo, male CD1 mice; conditions: 10 mg/kg per os three times a week for 13 weeks, starting the week before first AOM
Experimental: The in vivo study was conducted on six-week-old (25-30 g) male CD1 mice fed ad libitum and housed in cages with a controlled sleep/wake cycle. Before the start of the experimentation, the animals were subjected to an acclimatization period of 1 week considering all the experimental procedures and protocols, compliant with the principles of the care of laboratory animals approved by the Italian Ministry of Health and respecting the ARRIVE guidelines [Curtis M J et al. Experimental design and analysis and their reporting II: updated and simplified guidance for authors and peer reviewers. […] The animals were chemically treated with AOM (azoxymethane, 40 mg/kg in total) [Neufert C et al. An inducible mouse model of colon carcinogenesis for the analysis of sporadic and inflammation-driven tumor progression. […] A single dose of AOM was injected intraperitoneally at a concentration of 10 mg/kg at the beginning of the first, second, third and fourth weeks of the experiment [Pagano E et al. Pharmacological inhibition of MAGL attenuates experimental colon carcinogenesis, Pharmacol Res 2017; 119: 227-236]. […] The animals were euthanized 12 weeks after the first AOM injection and the colorectal area was collected. […] The detection and quantification of ACF, polyps and colorectal tumors was performed following the protocol of Pagano E et al. Pharmacological inhibition of MAGL attenuates experimental colon carcinogenesis, Pharmacol Res 2017; 119: 227-236.

For CCCCCCCCCCCCCCCC(=O)NCCO [ultra-micronized PEA, palmitoylethanolamide], the “proliferation rate of HCT116 cells” value (HCT116 cells [1]) was “reduces the proliferation rate”, the “expression of CDK1” value [2] was “increased expression” and the “proliferation of non-metastatic Caco-2 cells” value (Caco-2 cells) was “significantly reducing the proliferation”. The “expression of cyclin B1” value (cyclin B1) was “increased expression”, the “cell cycle arrest in the G2/M phase” value (HCT116 cells [3]) was “blocking neoplastic cells in the G2/M phase” and the “percentage of cells in the S phase” value (HCT116 cells [3]) was “significant reduction”. For the same molecule, the “proliferation rate of the healthy epithelial cell line HCEC” value [4] was “did not affect the proliferation rate”, the “number of pre-neoplastic ACF lesions” value ([5]; vs AOM alone (FIG. 4A)) was “significantly reduces” and the number of polyps ([5]; vs AOM alone (FIG. 4B)) was “strong tendency to also reduce”. For the same molecule, the “total number of tumors” value ([5]; vs AOM alone (FIG. 4C)) was “significantly reduces”.
